Test results: ChEMBL document CHEMBL1140088, “N9-substituted 2,4-diaminoquinazolines: synthesis and biological evaluation of lipophilic inhibitors of pneumocystis carinii and toxoplasma gondii dihydrofolate reductase” (J Med Chem, 2008)

Legend:
Dihydrofolate reductase [1] = molecular target: T1, Dihydrofolate reductase (Mycobacterium avium, UniProt O30463); assay: Inhibition of Mycobacterium avium dihydrofolate reductase
T1 sequence (O30463 whole entry): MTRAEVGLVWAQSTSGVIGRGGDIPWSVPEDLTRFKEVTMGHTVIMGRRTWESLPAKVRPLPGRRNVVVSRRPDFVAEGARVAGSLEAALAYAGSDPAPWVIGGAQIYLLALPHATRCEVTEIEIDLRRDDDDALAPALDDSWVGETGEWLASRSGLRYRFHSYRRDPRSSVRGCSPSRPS

Dihydrofolate reductase [2] = molecular target: T2, Dihydrofolate reductase (Pneumocystis carinii, UniProt P16184)
T2 sequence (P16184 whole entry): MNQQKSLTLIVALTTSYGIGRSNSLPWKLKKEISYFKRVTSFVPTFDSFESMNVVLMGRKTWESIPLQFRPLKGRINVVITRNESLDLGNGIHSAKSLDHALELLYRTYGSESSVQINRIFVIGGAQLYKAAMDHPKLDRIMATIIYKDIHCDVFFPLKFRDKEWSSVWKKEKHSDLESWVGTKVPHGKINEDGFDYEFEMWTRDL
Description: Inhibition of Pneumocystis carinii dihydrofolate reductase

Dihydrofolate reductase [3] = molecular target: T3, Dihydrofolate reductase (Rattus norvegicus, UniProt Q920D2)
T3 sequence (Q920D2 whole entry): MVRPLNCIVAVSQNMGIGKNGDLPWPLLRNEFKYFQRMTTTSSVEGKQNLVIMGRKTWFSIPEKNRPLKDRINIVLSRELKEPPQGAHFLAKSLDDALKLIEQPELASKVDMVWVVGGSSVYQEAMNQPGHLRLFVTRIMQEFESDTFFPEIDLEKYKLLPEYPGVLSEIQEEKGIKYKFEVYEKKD
Description: Inhibition of rat liver dihydrofolate reductase

[4] = molecular target: T4, Bifunctional dihydrofolate reductase-thymidylate synthase (Toxoplasma gondii, UniProt Q07422)
T4 sequence (Q07422 whole entry): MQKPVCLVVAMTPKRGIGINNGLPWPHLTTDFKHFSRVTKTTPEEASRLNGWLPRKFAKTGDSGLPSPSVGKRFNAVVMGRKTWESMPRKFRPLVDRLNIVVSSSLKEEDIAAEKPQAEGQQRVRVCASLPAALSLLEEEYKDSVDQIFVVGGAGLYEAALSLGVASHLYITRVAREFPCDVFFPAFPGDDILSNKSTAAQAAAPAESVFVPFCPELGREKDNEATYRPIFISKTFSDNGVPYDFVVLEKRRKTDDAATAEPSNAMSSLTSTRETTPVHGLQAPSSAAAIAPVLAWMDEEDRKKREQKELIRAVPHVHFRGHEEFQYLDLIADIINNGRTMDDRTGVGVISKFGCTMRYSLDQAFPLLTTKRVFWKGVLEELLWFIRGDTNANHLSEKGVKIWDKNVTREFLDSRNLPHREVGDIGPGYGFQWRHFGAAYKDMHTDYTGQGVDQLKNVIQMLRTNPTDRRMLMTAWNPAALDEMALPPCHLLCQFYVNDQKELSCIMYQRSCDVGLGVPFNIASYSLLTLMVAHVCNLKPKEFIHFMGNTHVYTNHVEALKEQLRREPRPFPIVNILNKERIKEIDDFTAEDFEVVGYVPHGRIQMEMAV
Description: Inhibition of Toxoplasma gondii dihydrofolate reductase

Compound: CCN(Cc1cccc2ccccc12)c1ccc2nc(N)nc(N)c2c1
- IC50 (Dihydrofolate reductase [1]): 2.9 nM
- IC50 (Dihydrofolate reductase [2]): 2.5 nM
- IC50 (Dihydrofolate reductase [3]): 6.5 nM
- IC50 [4]: 7.8 nM

Compound: CCN(Cc1cc(Cl)cc(Cl)c1Cl)c1ccc2nc(N)nc(N)c2c1
- IC50 (Dihydrofolate reductase [1]): 14 nM
- IC50 (Dihydrofolate reductase [2]): 6.9 nM
- IC50 (Dihydrofolate reductase [3]): 19 nM
- IC50 [4]: 19 nM

Compound: CCN(Cc1ccc2ccccc2c1)c1ccc2nc(N)nc(N)c2c1
- IC50 (Dihydrofolate reductase [1]): 2.3 nM
- IC50 (Dihydrofolate reductase [2]): 7.2 nM
- IC50 (Dihydrofolate reductase [3]): 14.5 nM
- IC50 [4]: 12 nM

Compound: CCN(Cc1ccccc1)c1ccc2nc(N)nc(N)c2c1
- IC50 (Dihydrofolate reductase [2]): 21 nM
- IC50 (Dihydrofolate reductase [3]): 4.1 nM
- IC50 [4]: 3.6 nM

Compound: CCN(Cc1cc(OC)ccc1OC)c1ccc2nc(N)nc(N)c2c1
- IC50 (Dihydrofolate reductase [1]): 0.98 nM
- IC50 (Dihydrofolate reductase [2]): 9.9 nM
- IC50 (Dihydrofolate reductase [3]): 4.8 nM
- IC50 [4]: 3.7 nM

Compound: CCCN(Cc1cc(OC)ccc1OC)c1ccc2nc(N)nc(N)c2c1
- IC50 (Dihydrofolate reductase [1]): 3.3 nM
- IC50 (Dihydrofolate reductase [2]): 38 nM
- IC50 (Dihydrofolate reductase [3]): 5.3 nM
- IC50 [4]: 9.5 nM
